Measured values reported in ChEMBL document CHEMBL5360655, “Design, Synthesis, and Biological Evaluation of Novel P2X7 Receptor Antagonists for the Treatment of Septic Acute Kidney Injury” (J Med Chem, 2023).
Activity calls are given as the source filed them. No cut-off for these calls is given here.

How the values were obtained:
[1] = biological target: T1, P2X purinoceptor 7 (Mus musculus) (UniProt Q9Z1M0); assay: Antagonist activity at mouse P2X7 receptor expressed in HEK293 cells assessed as inhibition of ATP-induced receptor pore formation at 1 uM by propidium iodide dye uptake based fluorescence analysis; assay type: cell-based; settings: filed as antagonist
T1 sequence (whole entry): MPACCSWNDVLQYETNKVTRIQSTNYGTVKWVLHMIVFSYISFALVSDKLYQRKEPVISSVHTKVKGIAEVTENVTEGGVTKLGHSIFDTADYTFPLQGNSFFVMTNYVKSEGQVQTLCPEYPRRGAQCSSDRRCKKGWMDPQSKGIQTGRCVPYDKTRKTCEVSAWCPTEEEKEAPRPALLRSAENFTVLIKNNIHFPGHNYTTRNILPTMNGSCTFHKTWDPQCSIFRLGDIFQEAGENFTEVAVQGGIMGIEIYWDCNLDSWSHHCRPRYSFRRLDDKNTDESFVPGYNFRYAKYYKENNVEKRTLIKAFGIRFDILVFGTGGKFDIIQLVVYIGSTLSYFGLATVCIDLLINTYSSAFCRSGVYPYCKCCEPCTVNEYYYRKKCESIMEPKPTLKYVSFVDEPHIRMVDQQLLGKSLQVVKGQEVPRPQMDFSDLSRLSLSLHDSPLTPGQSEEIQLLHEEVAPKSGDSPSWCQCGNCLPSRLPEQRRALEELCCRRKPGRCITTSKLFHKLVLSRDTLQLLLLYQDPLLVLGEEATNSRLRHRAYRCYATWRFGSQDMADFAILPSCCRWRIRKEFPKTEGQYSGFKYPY

P2X purinoceptor 7 [2] = biological target: T2, P2X purinoceptor 7 (Homo sapiens, UniProt Q99572); assay: Antagonist activity at human P2X7 receptor expressed in HEK293 cells assessed as inhibition of ATP-induced receptor pore formation by propidium iodide dye uptake based fluorescence analysis; assay type: cell-based
T2 sequence (Q99572 whole entry): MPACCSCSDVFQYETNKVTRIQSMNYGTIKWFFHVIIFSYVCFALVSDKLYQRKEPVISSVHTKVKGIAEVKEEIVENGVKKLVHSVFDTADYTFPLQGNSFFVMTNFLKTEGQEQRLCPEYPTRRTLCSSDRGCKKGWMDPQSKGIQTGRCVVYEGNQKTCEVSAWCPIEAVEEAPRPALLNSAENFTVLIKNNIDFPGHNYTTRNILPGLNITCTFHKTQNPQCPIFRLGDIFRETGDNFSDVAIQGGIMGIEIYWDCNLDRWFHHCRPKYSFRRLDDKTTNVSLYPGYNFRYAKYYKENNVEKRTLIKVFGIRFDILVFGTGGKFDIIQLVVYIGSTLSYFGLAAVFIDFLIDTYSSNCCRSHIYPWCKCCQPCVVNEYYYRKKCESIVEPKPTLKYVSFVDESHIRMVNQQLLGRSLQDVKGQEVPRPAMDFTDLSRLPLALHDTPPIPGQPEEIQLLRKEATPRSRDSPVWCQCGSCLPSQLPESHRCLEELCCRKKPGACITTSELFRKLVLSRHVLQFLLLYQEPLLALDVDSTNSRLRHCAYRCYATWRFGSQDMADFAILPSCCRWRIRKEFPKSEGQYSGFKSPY

P2X purinoceptor 7 [3] = biological target: T3, P2X purinoceptor 7 (Mus musculus, UniProt Q9Z1M0); assay: Antagonist activity at mouse P2X7 receptor expressed in HEK293 cells assessed as inhibition of ATP-induced receptor pore formation by propidium iodide dye uptake based fluorescence analysis; assay type: cell-based
T3 sequence (Q9Z1M0 whole entry): T1 sequence (whole entry)

[4] = Half life in human liver microsomes; assay type: ADME, Microsome
[5] = AUC(0 to t) in BALB/c mouse at 10 mg/kg, po measured for 24 hrs by LC-MS/MS analysis; assay type: ADME, organism-based; parameters: time 24 hrs, dose 10 mg/kg, route po; settings: in vivo
[6] = Oral bioavailability in BALB/c mouse at 10 mg/kg measured for 24 hrs by LC-MS/MS analysis; assay type: ADME, organism-based; settings: in vivo
Mus musculus [7] = assay: Reno-protective activity against LPS-induced acute kidney injury C57BL/6J mouse model assessed as decrease in BUN level at 10 mg/kg, ip administered twice at 30 mins prior to LPS challenge and 8 hrs post-LPS challenge and measured at 16 hrs post-LPS challenge; assay type: functional, organism-based; settings: time 16.5 hrs
Cytochrome P450 3A4 = Cytochrome P450 3A4 (Homo sapiens, UniProt P08684); assay: Inhibition of CYP3A4 in human liver microsomes using midazolam as substrate upto 100 uM incubated for 10 mins in presence of NADPH by LC-MS/MS analysis; assay type: ADME, Microsome
Cytochrome P450 2C9 = Cytochrome P450 2C9 (Homo sapiens, UniProt P11712); assay: Inhibition of CYP2C9 in human liver microsomes using tolbutamide as substrate upto 100 uM incubated for 10 mins in presence of NADPH by LC-MS/MS analysis; assay type: ADME, Microsome
Cytochrome P450 2D6 = Cytochrome P450 2D6 (Homo sapiens, UniProt P10635); assay: Inhibition of CYP2D6 in human liver microsomes using dextromethorphan as substrate upto 100 uM incubated for 10 mins in presence of NADPH by LC-MS/MS analysis; assay type: ADME, Microsome
THP-1 [8] = assay: Inhibition of ATP-induced apoptosis in human THP-1 cells at 0.5 to […] pretreated with LPS for 3 hrs followed by incubation with compound for 40 mins followed by treatment with ATP for 6 hrs by CCK8 assay; assay type: functional, cell-based; settings: dose 0.5-2.5 µM, time 400.0 min
THP-1 [9] = assay: Inhibition of ATP-induced apoptosis in human THP-1 cells at […] pretreated with compound for 3 hrs in presence of LPS followed by incubation with ATP for 1 hr by PI/Hoechst staining based fluorescence microscopic analysis; assay type: functional, cell-based; settings: dose 2.5 µM, time 4.0 hrs
THP-1 [10] = assay: Effect on P2X7 receptor expression in human THP-1 cells at 0.1 to […] pretreated with LPS for 3 hrs followed by incubation with compound for 40 mins followed by treatment with ATP for 1 hr by western blot analysis; assay type: functional, cell-based; settings: dose 0.1-2.5 µM, time 100.0 min
THP-1 [11] = assay: Inhibition of ATP-induced ROS production in human THP-1 cells at […] pretreated with LPS for 3 hrs followed by incubation with compound for 40 mins followed by treatment with ATP for 1 hr by DCFH-DA staining based fluorescence microscopic analysis; assay type: functional, cell-based; settings: dose 2.5 µM, time 100.0 min
[12] = Toxicity in C57BL/6J mouse assessed as pathological changes in heart at 20 mg/kg, ip administered twice at 0 hrs and 8 hrs and measured after 16 hrs by Hematoxylin-Eosin staining based analysis; assay type: organism-based; settings: in vivo
[13] = Toxicity in C57BL/6J mouse assessed as pathological changes in kidney at 20 mg/kg, ip administered twice at 0 hrs and 8 hrs and measured after 16 hrs by Hematoxylin-Eosin staining based analysis; assay type: organism-based; settings: in vivo
[14] = Toxicity in C57BL/6J mouse assessed as animal's survival rate at 400 mg/kg, ip measured for 14 days; assay type: organism-based; settings: in vivo, time 14 day
Mus musculus [15] = assay: (§1) Reno-protective activity against CLP-induced acute kidney injury C57BL/6J mouse model assessed as decrease in Il1b gene expression in kidney at 20 mg/kg, ip administered twice at 30 mins prior to CLP operation and 8 hrs post-CLP operation and measured at 16 hrs post-CLP operation by RNA sequencing analysis; assay type: functional, organism-based; settings: time 16.5 hrs
Mus musculus [16] = assay: as §1, with “NLRP3 protein” for “Il1b gene”, “western blot” for “RNA sequencing”; assay type: functional, organism-based; settings: time 16.5 hrs
Mus musculus [17] = assay: as §1, with “cleaved IL-1 beta protein” for “Il1b gene”, “western blot” for “RNA sequencing”; assay type: functional, organism-based; settings: time 16.5 hrs

Chain of Cytochrome P450 3A4 (P08684 whole entry): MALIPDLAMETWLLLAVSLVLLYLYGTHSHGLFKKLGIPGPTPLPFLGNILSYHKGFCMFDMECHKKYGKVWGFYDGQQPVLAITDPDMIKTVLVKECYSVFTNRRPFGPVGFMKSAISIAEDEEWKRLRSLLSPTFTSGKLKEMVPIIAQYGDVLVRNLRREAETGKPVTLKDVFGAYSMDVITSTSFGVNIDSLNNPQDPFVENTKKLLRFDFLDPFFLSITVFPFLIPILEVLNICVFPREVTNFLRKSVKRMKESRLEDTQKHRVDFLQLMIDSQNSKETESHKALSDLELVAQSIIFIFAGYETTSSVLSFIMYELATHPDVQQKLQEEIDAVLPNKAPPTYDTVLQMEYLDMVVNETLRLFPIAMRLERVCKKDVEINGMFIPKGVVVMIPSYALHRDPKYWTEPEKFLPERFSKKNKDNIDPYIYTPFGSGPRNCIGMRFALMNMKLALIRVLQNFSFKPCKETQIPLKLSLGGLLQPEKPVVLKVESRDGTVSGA
Chain of Cytochrome P450 2C9 (P11712 whole entry): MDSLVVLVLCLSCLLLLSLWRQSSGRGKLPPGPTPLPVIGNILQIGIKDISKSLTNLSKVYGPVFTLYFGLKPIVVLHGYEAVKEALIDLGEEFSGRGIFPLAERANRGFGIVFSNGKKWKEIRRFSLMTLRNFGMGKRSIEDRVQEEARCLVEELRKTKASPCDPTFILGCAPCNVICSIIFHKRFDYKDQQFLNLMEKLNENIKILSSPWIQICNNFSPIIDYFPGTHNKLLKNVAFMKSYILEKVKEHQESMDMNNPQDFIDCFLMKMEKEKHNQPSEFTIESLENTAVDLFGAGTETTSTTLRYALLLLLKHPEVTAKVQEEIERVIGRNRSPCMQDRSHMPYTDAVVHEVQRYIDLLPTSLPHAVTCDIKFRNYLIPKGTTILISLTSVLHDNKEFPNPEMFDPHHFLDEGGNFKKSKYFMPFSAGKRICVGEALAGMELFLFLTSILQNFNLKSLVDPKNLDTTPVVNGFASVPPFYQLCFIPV
Chain of Cytochrome P450 2D6 (P10635 whole entry): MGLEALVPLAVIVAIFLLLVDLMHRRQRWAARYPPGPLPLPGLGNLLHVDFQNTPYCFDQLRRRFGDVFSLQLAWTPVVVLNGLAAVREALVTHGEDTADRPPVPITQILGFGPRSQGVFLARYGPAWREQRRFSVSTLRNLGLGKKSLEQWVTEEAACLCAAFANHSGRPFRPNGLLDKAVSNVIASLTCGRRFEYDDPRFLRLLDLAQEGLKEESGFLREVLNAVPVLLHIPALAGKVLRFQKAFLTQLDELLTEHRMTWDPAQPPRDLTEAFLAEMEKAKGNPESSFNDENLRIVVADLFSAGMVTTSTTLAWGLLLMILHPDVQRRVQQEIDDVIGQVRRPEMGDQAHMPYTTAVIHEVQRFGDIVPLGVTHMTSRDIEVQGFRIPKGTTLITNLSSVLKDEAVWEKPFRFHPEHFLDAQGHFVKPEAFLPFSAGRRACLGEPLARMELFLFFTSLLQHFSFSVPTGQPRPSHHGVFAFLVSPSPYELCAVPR

**Q.** For `CS(=O)(=O)c1ccc(-c2nc(C(=O)NCc3cn(-c4cc(Br)ccn4)nn3)cs2)cc1`, which inhibition [1] is on record?
**A.** 107%

**Q.** And the IC50 (P2X purinoceptor 7 [2])?
**A.** 64.7 nM

**Q.** What about the IC50 (P2X purinoceptor 7 [3]) of the same compound?
**A.** 10.1 nM

**Q.** What about the half-life [4] of the same compound?
**A.** 1.75 h

**Q.** And the AUC(0-t) at 24 h [5]?
**A.** 6510 ng·h/mL

**Q.** What about the bioavailability [6] of the same compound?
**A.** 39.2%

**Q.** What about the Activity (Mus musculus [7]) of the same compound?
**A.** Active

**Q.** And the “inhibition (INH)” value (Cytochrome P450 3A4)?
**A.** Not Active

**Q.** And the “inhibition (INH)” value (Cytochrome P450 2C9)?
**A.** Not Active

**Q.** And the “inhibition (INH)” value (Cytochrome P450 2D6)?
**A.** Not Active

**Q.** And the inhibition (THP-1 [8])?
**A.** Active

**Q.** And the inhibition (THP-1 [9])?
**A.** Active

**Q.** And the Activity (THP-1 [10])?
**A.** inactive

**Q.** And the inhibition (THP-1 [11])?
**A.** Active

**Q.** What about the Activity [12] of the same compound?
**A.** Non-Toxic

**Q.** What about the Activity [13] of the same compound?
**A.** Non-Toxic

**Q.** What about the survival at 336 h [14] of the same compound?
**A.** 100%

**Q.** What about the Activity (Mus musculus [15]) of the same compound?
**A.** Active

**Q.** What about the Activity (Mus musculus [16]) of the same compound?
**A.** Active

**Q.** And the Activity (Mus musculus [17])?
**A.** Active
